Data from patent publication EP4745151A1, “FIBROBLAST ACTIVATION PROTEIN LIGAND AND USE THEREOF” (Jiangsu Hengrui Pharmaceuticals Co., Ltd., priority 2023, dated 2025).
Where two headings read alike, the source gives them in different places. Numbered stars: 1 amine (or outer) side, 2 acyl side, 3 side chain; on linkers, the order of the positions; unused ones are H or OH. Bridge positions count the residues as written; N and C are the ends. Square brackets hold non-standard residues; d marks the D form. Peptide text beside a SMILES is read from it. * marks the point of attachment. TBMB(SCH2CH2NH-DOTA) = O=C(O)CN1CCN(CC(=O)O)CCN(CC(=O)NCCSCc2cc(C[*:1])cc(C[*:2])c2)CCN(CC(=O)O)CC1; Phe(2-CF3) = N[C@@H](Cc1ccccc1C(F)(F)F)C(=O)O; Hyp = O=C(O)[C@@H]1C[C@@H](O)CN1; Hexanoyl = CCCCCC(=O)*; Aib = CC(C)(N)C(=O)O

Legend:
[1] = system: U-87 MG cells; assay: In vivo efficacy experiment in U-87 MG model mice; set-up: species or system B-NDG mice
Method: A total of 90 mice were inoculated. When the tumour in the mice grew to about […], 40 mice with uniform tumour sizes were selected for study enrolment.
The administration regimen was as follows: • Route of administration: tail vein injection; • Administration volume: 0.03-0.07 mL/animal; • Administration frequency and dose: The control group was given PBS, the ^177Lu-FAP-2286 group was given a single dose of 0.8 mCi/animal, the ^177Lu-DOTA-09 0.4mCi group was given a single dose of 0.4 mCi/animal, the ^177Lu-DOTA-09 0.8 mCi group was given a single dose of 0.8 mCi/animal, the ^177Lu-DOTA-09 0.8mCi×2 group was given two doses of 0.8 mCi/animal, with an administration interval of 35 days. Each group included eight animals. The administration time and administration activity of each mouse were recorded in detail.
After tumour modelling, the tumour size was observed. On the day before administration or the day of administration, the tumour volume was measured using a digital calliper, and the animal body weight was recorded. The animals were evenly divided into five groups on the basis of tumour volume, as follows: control group, ^177Lu-FAP-2286 0.8 mCi group, ^177Lu-DOTA-09 0.4 mCi group, ^177Lu-DOTA-09 0.8 mCi group, and ^177Lu-DOTA-09 0.8 mCi*2 group, with eight animals in each group.
On the day of administration, the test sample was taken for preparation (the stock solution of the test sample was directly used), and the activity of the prepared solution was measured.
From the second day after administration, the stage of tumour and body weight measurement began. The tumour and body weight measurement was performed at least twice a week. During each measurement, the long and short diameters of the tumour were recorded. The measurements were kept at the same location as possible. The abnormalities and deaths of the animals were recorded in time. […] The tumour volume was calculated as follows: tumour volume (mm^3) = long diameter × short diameter × short diameter × 0.52.

[2] = system: U-87 MG cells; details: mouse, in vivo
Method: (§1) Experimental animals: Germline: B-NDG (Biocytogen Jiangsu Co., Ltd.); Age: 5-8 weeks old; Body weight: 20-24 g.
(§2) A sufficient quantity of U-87 MG cells was prepared and inoculated into the posterior position of the right forelimb of B-NDG mice in an inoculation volume of 100 µl, containing 50% Matrigel and 5 × 10^6 cells. After inoculation, the tumour volume and animal body weight were monitored twice a week. Model mice with a tumour volume between 200 and 500 m^3 were selected for enrolment in this experiment and randomly grouped on the basis of tumour volume.

[3] = rat, in vivo
Method: (§3) Experimental animals: Germline: SD rat (Beijing Vital River Laboratory Animal Technology Co., Ltd.); Age: 5-6 weeks old; Body weight: 100-150 g.
(§4) • 1) Empty tubes for γ-counting were weighed and labelled in advance. • 2) After the test sample was injected into the tail vein of rats, animal blood samples were collected from the orbit at 2 min, 5 min, 15 min, 30 min, 1 h, 2 h, 4 h, 6 h, 24 h, 48 h and 72 h. The sample tubes containing blood were weighed. • 3) The net weight of the blood was calculated, and the radioactive count of the collected blood was determined using a γ-counter. • 4) The distribution of the labelled compound in the blood of rats at different time points was determined. The test sample was accurately diluted 100-fold, and 0.5 ml of the dilution was added to a counting tube to serve as a 1% ID standard (i.e., one percent of the injected dose). The radioactive counts of both the 1% ID standard and the biological samples were simultaneously determined using the γ-counter. • 5) The pharmacokinetic parameters were calculated using DAS software.
(§5) Data obtained from rat blood was expressed as the percentage of radioactive count per gram of blood relative to the total dose (radioactive count) (%ID/g). Specific calculation formula: [formula]
(§6) At the same time, the drug concentration in the blood was calculated on the basis of the radioactive count in the blood. Specific calculation formula: Plasma concentration (μCi/mL) = ((CPMBlood/CPMTotal administered dose) × D (μCi)Administered dose)/(w (g) Blood/i (g/mL)Blood density) [formula]

[4] = PET/SPECT imaging test of labelled compounds in U-87 MG tumour-bearing mice; details: B-NDG, mouse, tumour and kidney, iv, total radioactivity
Method: as §1, §2

[5] = Plasma concentration (pharmacokinetic) experiment of 177Lu-labelled compounds; details: for tissue uptake: SD, rat, whole blood, iv, total radioactivity
Method: as §3, §4, §5, §6

[6] = system: U-87 MG cells; assay: PET/SPECT imaging test of labelled compounds in U-87 MG tumour-bearing mice; details: for Tumour uptake: 177Lu-labelled
Method: as §1, §2

Which tumour inhibition rate ([1]; day 20 after administration, single dose of 0.8 mCi/animal) does the source give for CCCCCC(=O)N[C@H]1CSCc2cc(CSCCNC(=O)CN3CCN(CC(=O)O)CCN(CC(=O)O)CCN(CC(=O)O)CC3)cc(c2)CSC[C@@H](C(=O)O)NC(=O)[C@H](Cc2ccccc2)NC(=O)[C@H](CCC(N)=O)NC(=O)[C@H]([C@@H](C)O)NC(=O)[C@@H]2CCCN2C(=O)[C@@H]2CCCN2C1=O [^177Lu-FAP-2286, metal not drawn] here?
Its tumour inhibition rate is 40.02%.

What about the tumour size ([1]; day 20 after administration, single dose of 0.8 mCi/animal, tail vein) of the same molecule?
The tumour size was 1833.89 ± 338.00 mm^3.

What about the median survival time ([1]; single dose of 0.8 mCi/animal) of the same molecule?
The median survival time was 39 days.

And the “course of tumour uptake / intratumoral retention” value [2]?
Its value is “rapid decrease in intratumoral retention after 4 hours”.

And the Cl_obs [3]?
Its Cl_obs is 0.53±0.08 µCi/h*%ID/g.

What about the Cmax [3] of the same molecule?
The Cmax was 0.73±0.27 %ID/g.

And the MRTlast [3]?
Its MRTlast is 2.52 ± 0.34 h.

What about the Vz_obs [3] of the same molecule?
The Vz_obs was 1.50±0.97 µCi/%ID/g.

And the t1/2 [3]?
The t1/2 was 1.29 ± 0.43 h.

What about the tissue to tissue ratio at 0.5 h [4] of the same molecule?
The tissue to tissue ratio at 0.5 h was 3.29 ± 0.78.

What about the tissue to tissue ratio at 1.5 h [4] of the same molecule?
Its tissue to tissue ratio at 1.5 h is 6.53 ± 1.12.

And the tissue to tissue ratio at 4 h [4]?
Its tissue to tissue ratio at 4 h is 9.82 ± 4.79.

And the tissue to tissue ratio at 24 h [4]?
Its tissue to tissue ratio at 24 h is 2.75 ± 0.9.

For CCCCCC(=O)N[C@H]1CSCc2cc(CSCCNC(=O)CN3CCN(CC(=O)O)CCN(CC(=O)O)CCN(CC(=O)O)CC3)cc(c2)CSC[C@@H](C(=O)O)NC(=O)[C@H](Cc2ccccc2C(F)(F)F)NC(=O)[C@H](CCC(N)=O)NC(=O)[C@H]([C@@H](C)O)NC(=O)[C@@H]2C[C@@H](O)CN2C(=O)[C@@H]2CCCN2C(=O)C(C)(C)NC1=O [^177Lu-DOTA-09, metal not drawn] (Hexanoyl-C[Aib]P[Hyp]TQ[Phe(2-CF3)]C-OH; linker 1-8 via TBMB(SCH2CH2NH-DOTA)), which “body weight changes of mice” value ([1]; during administration, all dose groups) is on record?
The value was “No significant body weight changes”.

And the “course of tumour uptake / intratumoral retention” value [2]?
Its value is “decreased slowly”.

And the “half-life (t1/2) compared with control” value [3]?
Its value is “significantly longer”.

What about the t1/2 [3] of the same molecule?
The t1/2 was 9.12 ± 4.69 h.

And the Cl_obs ([5]; SD rat, tail vein, blood)?
The Cl_obs was 0.10±0.02 µCi/h*%ID/g.

And the Cmax ([5]; SD rat, tail vein, blood)?
The Cmax was 0.89±0.21 %ID/g.

What about the MRTlast ([5]; SD rat, tail vein, blood) of the same molecule?
Its MRTlast is 15.49 ± 0.36 h.

What about the Vz_obs ([5]; SD rat, tail vein, blood) of the same molecule?
The Vz_obs was 2.21±0.38 µCi/%ID/g.

What about the tissue uptake ([5]; AUCINF_obs, SD rat, tail vein, blood) of the same molecule?
Its tissue uptake is 5.28 ± 1.07.

What about the tissue uptake ([5]; AUClast, SD rat, tail vein, blood) of the same molecule?
The tissue uptake was 5.04 ± 0.94.

And the “mean residence time (MRTlast) compared with control” value ([5]; rats, versus 177Lu-FAP-2286, in words)?
The value was “significantly longer”.

And the tissue to tissue ratio at 0.5 h [4]?
The tissue to tissue ratio at 0.5 h was 6.08 ± 1.62.

And the tissue to tissue ratio at 1.5 h [4]?
Its tissue to tissue ratio at 1.5 h is 8.66 ± 0.73.

And the tissue to tissue ratio at 4 h [4]?
Its tissue to tissue ratio at 4 h is 11.8 ± 2.62.

What about the tissue to tissue ratio at 24 h [4] of the same molecule?
The tissue to tissue ratio at 24 h was 19.4 ± 5.84.

What about the Tumour uptake ([6]; Table 5, 0.5 h) of the same molecule?
The Tumour uptake was 29.52±2.98.

And the Tumour uptake ([6]; Table 5, 1.5 h)?
Its Tumour uptake is 30.88±3.14.

What about the Tumour uptake ([6]; Table 5, 4.0 h) of the same molecule?
Its Tumour uptake is 31.09±3.88.

What about the Tumour uptake ([6]; Table 5, 24h) of the same molecule?
Its Tumour uptake is 30.46±1.99.

And the Tumour uptake ([6]; Table 5, 48h)?
The Tumour uptake was 24.10±2.21.

What about the Tumour uptake ([6]; Table 5, 72h) of the same molecule?
The Tumour uptake was 20.59±1.91.

And the Tumour uptake ([6]; Table 5, 168h)?
Its Tumour uptake is 12.81±0.90.

What about the “tumour/kidney ratio compared with control” value ([6]; versus 177Lu-FAP-2286, in words) of the same molecule?
The value was “higher”.
